In this assay the test system is Dihydrofolate reductase (Enterococcus faecium).
The compound `CCCCOC(=O)c1ccc(NCc2ccc3nc(N)nc(N)c3c2Cl)cc1` came in with a -Delta G of 11.4 kcal/mol.
In the case of `CCOC(=O)c1ccc(CNc2ccc3nc(N)nc(O)c3c2)cc1`, the -Delta G amounted to 8.6 kcal/mol.
Regarding `Nc1nc(O)c2c(S(=O)(=O)c3ccc4ccccc4c3)cccc2n1`, the -Delta G came out at 9 kcal/mol.
The value for `Cc1c(NCc2ccc(C(=O)O)cc2)ccc2nc(N)nc(O)c12` was 6.5 kcal/mol.
In turn, `CCOC(=O)c1ccc(CNc2ccc3nc(N)nc(N)c3c2)cc1` gave a -Delta G of 11 kcal/mol.
`Sc1nc(S)c2cc(Sc3ccc4ccccc4c3)ccc2n1` displayed a -Delta G of 6 kcal/mol.
The value for `Nc1nc(N)c2c(Cl)c(CNc3ccc(C(=O)O)cc3)ccc2n1` was 12.3 kcal/mol.
The compound `Oc1nc(S)nc2ccc(Sc3ccc4ccccc4c3)cc12` gave a -Delta G of 6.2 kcal/mol.
For the compound `Nc1nc(N)c2c([S+]([O-])c3ccc(Cl)c(Cl)c3)cccc2n1` (stereo not drawn), the -Delta G was found to be 7.3 kcal/mol.
The value for `CCOC(=O)c1ccc(NCc2ccc3nc(N)nc(N)c3c2Cl)cc1` was 12.8 kcal/mol.
The result for `CCCCOC(=O)c1ccc(NCc2ccc3nc(N)nc(N)c3c2C)cc1` reads 12.1 kcal/mol; that for `Cc1c(CNc2ccc(C(=O)NC(CC(=O)O)C(=O)O)cc2)ccc2nc(N)nc(N)c12` (stereo not drawn), 12.7 kcal/mol.
The result for `Nc1nc(N)c2cc(S(=O)(=O)c3ccc4ccccc4c3)ccc2n1` reads 12.4 kcal/mol.
In the case of `O=c1[nH]c(=S)c2cc(Sc3ccc4ccccc4c3)ccc2[nH]1`, the -Delta G worked out at 6.8 kcal/mol.
The result for `CCOC(=O)c1ccc(CNc2ccc3nc(N)nc(N)c3c2C)cc1` reads 13.1 kcal/mol.
The result for `Nc1nc(N)c2c(Sc3ccc(Cl)c(Cl)c3)cccc2n1` reads 9.9 kcal/mol; that for `Nc1nc(N)c2cc([S+]([O-])c3ccc4ccccc4c3)ccc2n1` (stereo not drawn), 12.8 kcal/mol; that for `Nc1nc(O)c2cc(NCc3ccc(C(=O)O)cc3)ccc2n1`, 7.2 kcal/mol.
The value for `Nc1nc(O)c2cc(S(=O)(=O)c3ccc(Cl)c(Cl)c3)ccc2n1` was 8.2 kcal/mol; that for `Nc1ncnc2ccc(S(=O)(=O)c3ccc4ccccc4c3)cc12` was 5.8 kcal/mol; that for `Nc1ncnc2ccc(Sc3ccc4ccccc4c3)cc12` was 6.5 kcal/mol.
Compound `CCOC(=O)c1ccc(NCc2ccc3nc(N)nc(O)c3c2)cc1` returned a -Delta G of 10.6 kcal/mol.
The value for `CCOC(=O)c1ccc(CNc2ccc3nc(N)nc(O)c3c2C)cc1` was 7.1 kcal/mol; that for `Nc1nc(S)nc2ccc(Sc3ccc4ccccc4c3)cc12` was 7.4 kcal/mol.
Take `CCOC(=O)c1ccc(NCc2ccc3nc(N)nc(N)c3c2)cc1`: the -Delta G stood at 11.4 kcal/mol.
The value for `Nc1nc(S)c2cc(S(=O)(=O)c3ccc4ccccc4c3)ccc2n1` was 8 kcal/mol; that for `Nc1nc(N)c2cc(CNc3ccc(C(=O)O)cc3)ccc2n1` was 13 kcal/mol; that for `Nc1nc(N)c2c(Sc3ccc4ccccc4c3)cccc2n1` was 10.9 kcal/mol.
The result for `Nc1nc(N)c2c(CCc3ccc4ccccc4c3)cccc2n1` reads 11.9 kcal/mol.
For the compound `Nc1nc(N)c2cc(Sc3cccc(C(F)(F)F)c3)ccc2n1`, the -Delta G worked out at 13.4 kcal/mol.
The value for `Nc1nc(O)c2cc(CNc3ccc(C(=O)O)cc3)ccc2n1` was 8.8 kcal/mol.
The value for `CCOC(=O)c1ccc(CNc2ccc3nc(N)nc(N)c3c2Cl)cc1` was 12.2 kcal/mol; that for `Nc1nc(N)c2cc(Sc3ccc(Cl)c(Cl)c3)ccc2n1` was 12.2 kcal/mol; that for `Nc1nc(O)c2cc(Sc3ccc4ccccc4c3)ccc2n1` was 10.2 kcal/mol.
The value for `Nc1ncnc2ccc([S+]([O-])c3ccc4ccccc4c3)cc12` (stereo not drawn) was 7.2 kcal/mol; that for `Cc1c(CNc2ccc(C(=O)O)cc2)ccc2nc(N)nc(N)c12` was 11.8 kcal/mol; that for `Nc1nc(O)nc2ccc(Sc3ccc4ccccc4c3)cc12` was 6.9 kcal/mol.
Regarding `Nc1nc(N)c2cc(S(=O)(=O)c3ccc(Cl)c(Cl)c3)ccc2n1`, the -Delta G stood at 13.4 kcal/mol.
The value for `Nc1nc(N)c2c(CSc3ccc(Cl)cc3)cccc2n1` was 10.9 kcal/mol; that for `CCOC(=O)c1ccc(NCc2ccc3nc(N)nc(N)c3c2C)cc1` was 12.3 kcal/mol.
For the compound `Nc1nc(O)c2cc(S(=O)(=O)c3ccc4ccccc4c3)ccc2n1`, the -Delta G is 9.6 kcal/mol.
The value for `Nc1nc(O)c2c(Sc3ccc4ccccc4c3)cccc2n1` was 7.4 kcal/mol; that for `Nc1nc(S)c2cc(Sc3ccc4ccccc4c3)ccc2n1` was 9.3 kcal/mol.
The value for `O=c1[nH]c(=O)c2cc(Sc3ccc4ccccc4c3)ccc2[nH]1` was 6.9 kcal/mol; that for `Nc1nc(O)c2cc(Sc3ccc(Cl)c(Cl)c3)ccc2n1` was 9.1 kcal/mol; that for `Nc1nc(N)c2c([S+]([O-])c3ccc4ccccc4c3)cccc2n1` (stereo not drawn) was 6.9 kcal/mol.
As for `Nc1nc(N)c2c(/C=C/c3ccc4ccccc4c3)cccc2n1`, the -Delta G was found to be 10.7 kcal/mol.
The result for `Nc1nc(N)c2c(S(=O)(=O)c3ccc(Cl)c(Cl)c3)cccc2n1` reads 9 kcal/mol.
The value for `Nc1nc(N)c2c(/C=C\c3ccc4ccccc4c3)cccc2n1` was 11.1 kcal/mol.
As for `Nc1nc(O)c2cc([S+]([O-])c3ccc4ccccc4c3)ccc2n1` (stereo not drawn), the -Delta G is 8.2 kcal/mol.
`CCOC(=O)c1ccc(CNc2ccc3nc(N)nc(O)c3c2Cl)cc1` gave a -Delta G of 9.3 kcal/mol.
In turn, `CCCCOC(=O)c1ccc(NCc2ccc3nc(N)nc(N)c3c2)cc1` came in with a -Delta G of 11.2 kcal/mol.
The value for `Nc1nc(N)c2c(S(=O)(=O)c3ccc4ccccc4c3)cccc2n1` was 6.5 kcal/mol.

(Values after ChEMBL document CHEMBL1122106, “Quantitative structure-activity relationship by distance geometry: quinazolines as dihydrofolate reductase inhibitors” (J Med Chem, 1982).)
